Experimental data published in patent US10800816B2 (Baxalta GmbH, priority 2012, dated 2020).
Read-outs that look alike come from different tables or passages of the source. *1 amine or outer side, *2 acyl side, *3 side chain or, on linkers, in order; H or OH if unused. Where a SMILES comes first, the peptide text is derived from it. Bridges are numbered along the chain shown (N, C = ends). Side-chain parts run from the residue outwards. [ ]: non-standard residue; d: D form. The star is where a group is joined. X1 = CCCCCCCCCCCCCC(=O)NCCCOCCOCCOCCCN*; Suc = O=C(CCC(=O)[*:2])[*:1]; Tle = CC(C)(C)[C@H](N)C(=O)O; hCys = N[C@@H](CCS)C(=O)O; Hexanoyl = CCCCCC(=O)*; Aib = CC(C)(N)C(=O)O; Acm = CC(=O)NC*

Tests used:
[1] = system: Tissue Factor Pathway Inhibitor (TFPI); assay: IC50 ELISA | Mean IC50 [nM]
[2] = system: TFPI; assay: IC50 ELISA | Mean IC50 [nM]
Source text: Table printed on a drawing sheet, FIGURE 78Z
(§1) Head of the field: IC50 ELISA | Mean IC50 [nM]
First copying reader's note: Continued table: the first body row (45.67) belongs to a compound on the preceding sheet, the last row probably continues on the next sheet, and cells with several values list single replicates.

[3] = system: TFPI; assay: IC50 ELISA | Mean IC50 [nM]; remark: listed apart in the source
[4] = system: TFPI; assay: Progress Curves of Inhibition of FXa | % Inhibit (2.5µM)
Method: Head of the field: Progress Curves of Inhibition of FXa | % Inhibit (2.5µM)
“*” denotes negative controls.

[5] = system: TFPI; assay: Extrinsic Tenase Inhibition by TFPI | % Inhibit (2.5μM )
[6] = system: TFPI; assay: Progress Curves of Inhibition of FXa | % Inhibit (2.5μM)
Method: Head of the field: Progress Curves of Inhibition of FXa | % Inhibit (2.5μM)

[7] = system: Tissue Factor Pathway Inhibitor (TFPI); assay: IC50 ELISA | Mean IC50 [nM]; remark: listed apart in the source
[8] = system: TFPI; assay: IC50 ELISA | Mean IC50 [nM]; remark: listed apart in the source
[9] = system: TFPI; assay: IC50 ELISA | Mean IC50 [nM]; remark: listed apart in the source
[10] = system: Tissue Factor Pathway Inhibitor (TFPI); assay: IC50 ELISA | Mean IC50 [nM]; remark: listed apart in the source
[11] = system: TFPI; conditions: read-out: IC50 Mean
[12] = system: Tissue Factor Pathway Inhibitor (TFPI); assay: IC50 ELISA | IC50 [nM]
Source text: Table printed on a drawing sheet, FIGURE 78E
(§2) Head of the field: IC50 ELISA | IC50 [nM]

[13] = system: Tissue Factor Pathway Inhibitor (TFPI); assay: IC50 ELISA | IC50 [nM]; remark: listed apart in the source
Source text: Table printed on a drawing sheet, FIGURE 78N
as §2

[14] = system: Tissue Factor Pathway Inhibitor (TFPI); assay: IC50 ELISA | IC50 [nM]; remark: listed apart in the source
Source text: Table printed on a drawing sheet, FIGURE 78Q
as §2

[15] = system: Tissue Factor Pathway Inhibitor (TFPI); assay: IC50 ELISA | IC50 [nM]; remark: listed apart in the source
Source text: Table printed on a drawing sheet, FIGURE 78S
as §2

[16] = system: Tissue Factor Pathway Inhibitor (TFPI); assay: IC50 ELISA | IC50 [nM]; remark: listed apart in the source
Source text: Table printed on a drawing sheet, FIGURE 78U
as §2

[17] = system: Tissue Factor Pathway Inhibitor (TFPI); assay: IC50 ELISA | Mean IC50 [nM]; remark: listed apart in the source
[18] = FIGURE 78M
[19] = FIGURE 78K
Source text: Table printed on a drawing sheet, FIGURE 78K

[20] = FIGURE 78L
Source text: Table printed on a drawing sheet, FIGURE 78L

[21] = system: Tissue Factor Pathway Inhibitor (TFPI); assay: IC50 ELISA | Mean IC50 [nM]; remark: listed apart in the source
Source text: Table printed on a drawing sheet, FIGURE 78M
as §1

[22] = system: Tissue Factor Pathway Inhibitor (TFPI); assay: IC50 ELISA | Mean IC50 [nM]; remark: listed apart in the source
[23] = system: Tissue Factor Pathway Inhibitor (TFPI); assay: IC50 ELISA | Mean IC50 [nM]; remark: listed apart in the source
[24] = FIGURE 78W
Source text: Table printed on a drawing sheet, FIGURE 78W

[25] = system: Tissue Factor Pathway Inhibitor (TFPI); assay: IC50 ELISA | IC50 [nM]; remark: listed apart in the source
Source text: Table printed on a drawing sheet, FIGURE 78R
as §2

[26] = system: TFPI; assay: Progress Curves of Inhibition of FXa | % Inhibit (2.5µM); remark: listed apart in the source
[27] = system: TFPI; assay: Extrinsic Tenase Inhibition by TFPI | % Inhibit (2.5µM)
[28] = system: TFPI; assay: Progress Curves of Inhibition of FXa | % Inhibit (2.5µM); remark: listed apart in the source
[29] = system: TFPI; assay: Extrinsic Tenase Inhibition assay | % Inhibition @ 2.5µM
[30] = system: Tissue Factor Pathway Inhibitor (TFPI); assay: IC50 ELISA | Mean IC50 [nM]; remark: listed apart in the source
[31] = system: FIX knock-out mice; assay: Tail-tip bleed model in FIX knock-out mice; format: in vivo, mouse
Method: JBT2329 also was tested in a FIX knock-out tail-tip bleed mouse model, which is a clinically-relevant model for hemophilia B human patients. The methodology was substantially similar to that described above with respect to the FVIII knock-out model. Instead of ADVATE, a recombinant FIX (rFIX) served as a reference. Median total blood loss in buffer-treated animals was 935 mg. Median total blood loss in animals treated with a murine anti-TFPI antibody (maTFPI) was 774 mg. Median total blood loss was reduced further when the animals received combined treatment of maTFPI and rFIX.

CC(=O)N[C@@H](Cc1ccccc1)C(=O)N[C@@H](CCC(N)=O)C(=O)N[C@@H](CO)C(=O)N[C@@H](CCCCN)C(=O)N1CCC[C@@H]1C(=O)N[C@@H](CC(N)=O)C(=O)N[C@H](C(=O)N[C@@H](Cc1c[nH]cn1)C(=O)N[C@H](C(=O)N[C@@H](CC(=O)O)C(=O)N[C@@H]1CSSCC[C@@H](C(=O)N[C@@H](CCCNC(=N)N)C(=O)N[C@@H](CC(C)C)C(=O)NC(C)(C)C(=O)N[C@@H](C)C(=O)N[C@@H](CCCCN)C(=O)N[C@@H](CC(C)C)C(N)=O)NC(=O)[C@H](Cc2ccccc2)NC(=O)[C@H](Cc2ccc(O)cc2)NC1=O)C(C)(C)C)C(C)C [JBT00002494, Ac-FQSKpNVH-Tle-D[cYF-Hcy-]RL-Aib-AKL-NH2] (Ac-FQSK[dP]NVH[Tle]D[dC]YF[hCys]RL[Aib]AKL-NH2; disulfide 11-14)
IC50 [1]: 2.84 nM

CCCCCCCCCCCCCC(=O)NCCCOCCOCCOCCCNC(=O)CCC(=O)NCCCC[C@H](NC(=O)[C@H](CC(C)C)NC(=O)[C@H](CCCCN)NC(=O)[C@H](C)NC(=O)C(C)(C)NC(=O)[C@H](CC(C)C)NC(=O)[C@H](CCCNC(=N)N)NC(=O)[C@H](CCC(=O)O)NC(=O)[C@H](Cc1ccccc1)NC(=O)[C@H](Cc1ccc(O)cc1)NC(=O)[C@@H](C)NC(=O)[C@H](CC(=O)O)NC(=O)[C@@H](NC(=O)[C@H](Cc1c[nH]cn1)NC(=O)[C@@H](NC(=O)[C@H](CSCNC(C)=O)NC(=O)[C@H]1CCCN1C(=O)[C@H](CCCCN)NC(=O)[C@H](CO)NC(=O)[C@H](CCC(N)=O)NC(=O)[C@H](Cc1ccccc1)NC(=O)CCCCC)C(C)C)C(C)(C)C)C(N)=O [JBT00002531, Hex-FQSKp-Cys(Acm)-VH-Tle-DaYFERL-Aib-AKLK(Ttds- Myr)--NH2] (Hexanoyl-FQSK[dP]C(Acm)VH[Tle]D[dA]YFERL[Aib]AKLK([Suc-X1])-NH2)
IC50 [2]: 27 nM | IC50 [3]: 27.2 nM

(Ac-FQSKpNVHVDGYFERL-Aib-AKLC-NH2)2-M2PEG2000 [JBT00002523]
IC50 [3]: 1.03 nM

Ac- KKLTGDWTYFWSKVIWGPGVIERQMPVSTFH KK-NH2 (SEQ ID NO: 3065) (Ac-KKLTGDWTYFWSKVIWGPGVIERQMPVSTFHKK-NH2) [JBT0177*]
Progress Curves of Inhibition of FXa | % Inhibit ([…]) [4]: 4%

Ac- KKPLAVQLHVSKRSKEMALARLYYKTSKK- NH2 (SEQ ID NO: 2129) (Ac-KKPLAVQLHVSKRSKEMALARLYYKTSKK-NH2) [JBT0229]
Extrinsic Tenase Inhibition by TFPI | % Inhibit ([…]) [5]: 0% | Progress Curves of Inhibition of FXa | % Inhibit ([…]) [6]: 0%

Ac- KKVGSVTRWSMYGPIFIKFTWTLEQPVGWDH KK-NH2 (SEQ ID NO: 3056) (Ac-KKVGSVTRWSMYGPIFIKFTWTLEQPVGWDHKK-NH2) [JBT0176*]
Progress Curves of Inhibition of FXa | % Inhibit ([…]) [4]: 0%

Ac-FQ-Ede(O)-KpNVH-Tle-DaYFERL-Aib-AKL-NH2 [JBT00002453]
IC50 [7]: 7.9 nM

Ac-FQSK-Nmg-NVFVFGYFERLRAKL-NH2 [JBT00000500]
IC50 [8]: 93.4 nM

Ac-FQSK-Nmg-NVFVTGYFERL-Aib-AKL-NH2 [JBT00001585]
IC50 [9]: 15.1 nM

Ac-FQSK-nma-NVHVDGYFERL-Aib-AKL-NH2 [JBT00002280]
IC50 [10]: 4.6 nM

Ac-FQSKGNVFVDGYFERL-Aib-AKLC(PEG)-NH2 [JBT00001855]
IC50 [9]: 121 nM

Ac-FQSKGNVFVTGYFDRLRAKL-NH2 [JBT0775 | 69]
IC50 [11]: 22 nM

Ac-FQSKKNVFV-NH2 [JBT00002258]
IC50 [12]: > 5000 nM

Ac-FQSKpNVH-Nmv-DGYFERL-Aib-AKLC(NEM)-NH2 [JBT00002387]
IC50 [13]: > 500 nM

Ac-FQSKpNVH-Tle-DGYFERL-Aib-A-Nmk-L-NH2 [JBT00002425]
IC50 [14]: > 500 nM

Ac-FQSKpNVH-Tle-DaYFERL-Aib-A-Opc-L-NH2 [JBT00002447]
IC50 [15]: > 500 nM

Ac-FQSKpNVH-Tle-DaYF[-Hcy-RL-Aib--Hcy-]KL-NH2 [JBT00002489]
IC50 [16]: > 500 nM

Ac-FQSKpNVHVDGYFERL-Aib-AKLC(ME-50MA)-NH2 [JBT00002325]
IC50 [17]: 6.6 nM

Ac-FQSKpNVHVDGYFERL-Aib-AKLC(ME-120MA)-NH2 [JBT00002326]
IC50 [17]: 9.3 nM

Ac-FQSKpNVHVDGYFERL-Aib-AKLC(ME-400MA)-NH2 [JBT00002329] [listing 1 of 2 here]
24 h Human Plasma Stability | Mean Remaining [%] [18]: 59.30% | 24 h Mouse Plasma Stability | Mean Remaining [%] [18]: 56.70% | 24 h Human Plasma Stability | Mean Remaining [%] [19]: 69.50% | 24 h Mouse Plasma Stability | Mean Remaining [%] [19]: 69.50% | 24 h Human Plasma Stability | Mean Remaining [%] [20]: 62.90% | 24 h Mouse Plasma Stability | Mean Remaining [%] [20]: 81.80%

Ac-FQSKpNVHVDGYFERL-Aib-AKLC(ME-400MA)-NH2 [JBT00002329] [listing 2 of 2 here]
IC50 [21]: 20.8 nM

Ac-FQSKpNVHVDGYFERL-Aib-AKLK(AOA-40kDa PSA)- NH2 [JBT00002430]
IC50 [22]: 15.4 nM

Ac-FQSKpNVHVDGYFERL-Egz-AKL-NH2 [JBT00002302]
IC50 [23]: 2.7 nM

Ac-FQSKpNVHVPcYF-Hcy-RL-Aib-AKL-NH2 [JBT00002499]
24 h Human Plasma Stability | Mean Remaining [%] [24]: 40.70%

Ac-FQVH-Tle-DGYFERL-Aib-AKL-NH2 [JBT00002428]
IC50 [14]: > 500 nM

Ac-FqVH-Tle-DGYFERL-Aib-AKL-NH2 [JBT00002429]
IC50 [25]: > 500 nM

Ac-KWFCGMRDMKGTMSCVWVKFRYDTS- [JBT0324]
Progress Curves of Inhibition of FXa | % Inhibit ([…]) [26]: 0%

Ac-SGGRKHKHFLRSNGKPSRALSS-NH2 (SEQ [JBT0424]
Extrinsic Tenase Inhibition by TFPI | % Inhibit ([…]) [27]: 0% | Progress Curves of Inhibition of FXa | % Inhibit ([…]) [28]: 1%

Ac-SRYKWFGMR[CDMKGC]TMSVWVKF-NH2 (SEQ ID NO: 1162) (Ac-SRYKWFGMRCDMKGCTMSVWVKF-NH2; disulfide 10-15; SMILES CSCC[C@H](NC(=O)CNC(=O)[C@H](Cc1ccccc1)NC(=O)[C@H](Cc1c[nH]c2ccccc12)NC(=O)[C@H](CCCCN)NC(=O)[C@H](Cc1ccc(O)cc1)NC(=O)[C@H](CCCNC(=N)N)NC(=O)[C@H](CO)NC(C)=O)C(=O)N[C@@H](CCCNC(=N)N)C(=O)N[C@H]1CSSC[C@@H](C(=O)N[C@H](C(=O)N[C@@H](CCSC)C(=O)N[C@@H](CO)C(=O)N[C@H](C(=O)N[C@@H](Cc2c[nH]c3ccccc23)C(=O)N[C@H](C(=O)N[C@@H](CCCCN)C(=O)N[C@@H](Cc2ccccc2)C(N)=O)C(C)C)C(C)C)[C@@H](C)O)NC(=O)CNC(=O)[C@H](CCCCN)NC(=O)[C@H](CCSC)NC(=O)[C@H](CC(=O)O)NC1=O) [JBT0470]
Extrinsic Tenase Inhibition assay | % Inhibition @ […] [29]: 2%

FAM-Ttds-FQSK-Nmg-NVFVDGYFERL-Aib-AKL-NH2 [JBT00002262]
IC50 [30]: 13.4 nM

Palm-FQSKpNVH-Tle-DaYFERL-Aib-AKL-NH2 [JBT00002440]
IC50 [25]: > 500 nM

rFIX: a recombinant FIX
Median total blood loss ([31]; 10 IU/kg rFIX alone): 888 mg | Median total blood loss ([31]; 25 IU/kg rFIX alone): 774 mg
